From patent US20040023922A1, “Lipids for modulating immune response” (priority 2000, published 2004)
Values joined by “and” are separate entries in the source; they are usually repeats but may differ in a detail not shown here. Equal entries are not always repeated. Where two headings read alike, the source gives them in different places.

Assays:
Female Balb/c mice = assay: Adjuvanticity of lipids: serum anti-KLH IgA, IgG, IgM ELISA (Example 7); format: in vivo; settings: for Day 7 Results IgA, score as multiples of the control response / Day 7 Results IgG, score as multiples of the control response / Day 7 Results IgM, score as multiples of the control response: serum day 7 after booster; for Day 7 Results IgA, score as multiples of the control response: 5 μl lipid + 45 μl saline + 50 μl KLH (2 mg/ml), week 0 and week 2; for Day 7 Results IgA, score as multiples of the control response / Day 7 Results IgG, score as multiples of the control response / Day 7 Results IgM, score as multiples of the control response / Day 21 Results IgA, score as multiples of the control response / Day 21 Results IgG, score as multiples of the control response / Day 21 Results IgM, score as multiples of the control response: control KLH + Saline = 1; for Day 21 Results IgA, score as multiples of the control response / Day 21 Results IgG, score as multiples of the control response / Day 21 Results IgM, score as multiples of the control response: serum day 21 after booster; for Ranking Total: sum of the six IgA, IgG, IgM scores of day 7 and day 21, control KLH + Saline = 6
Protocol: The objective of this study was to investigate the adjuvanticity of 19 different lipids.
Female Balb/c mice, 6-8 weeks and weighing about 20-22 gms were used and maintained on a normal mouse diet throughout the study.
There were 22 groups of mice marked alphabetically from A-V. Group A (8 mice) was the negative control (KLH+Saline), Group B (8 mice) was the positive control (KLH+IFA). Groups C-V were the experimental groups containing 6 mice each. 100 μl of antigen preparation comprising of 5 μl lipid+45 μl saline+50 μl (2 mg/ml KLH) was administered to 20 groups of 6 mice each, on week 0 followed by a boost on week 2.
On day 7 and day 21 after the booster dose, the mice were tail bled, the serum separated, aliquoted and stored at 4° C.
The specific anti-KLH IgG and IgM antibody content of each individual serum sample was determined in an established ELISA assay and standardised against a positive control antiserum obtained by hyperimmunisation of mice with KLH (100 μg) in Freund's incomplete adjuvant. Plates were coated with KLH at 2 μg/ml and incubated with four twofold dilutions of samples (100 μl) at 37° C. for 2 hours. The initial dilution of serum samples was 1:50 for IgA assay and 1:100 for IgG and IgM assays. […] IgA and IgM were used at 1:1000 and IgG at 1:2000 for 2 hours at 37° C. The results were expressed as antibody units calculated from the standard curve obtained from pooled immune mouse serum given an arbitrary antibody value of 100,000 IgA units/ml and 1×10^6 IgG and IgM units/ml. The standard curve was diluted from 1:100 to 1:3200 for IgA, 1:4000 to 1:256,000 for IgG and 1:1000 to 1:32000 for IgM samples. The value for each sample dilution falling on standard curve was calculated and the mean taken as the value for the sample.
Results are given in the form of histograms (FIGS. 9 to 14), plotting the Ig response (units/ml) against the trial grouping. […] The number signifies multiples of the control response.

mesenteric lymph nodes = format: in vivo, mice

SMILES | Day 7 Results IgA, score as multiples of the control response (Female Balb/c mice) | Day 7 Results IgG, score as multiples of the control response (Female Balb/c mice) | Day 7 Results IgM, score as multiples of the control response (Female Balb/c mice) | Day 21 Results IgA, score as multiples of the control response (Female Balb/c mice) | Day 21 Results IgG, score as multiples of the control response (Female Balb/c mice) | Day 21 Results IgM, score as multiples of the control response (Female Balb/c mice) | Ranking Total (Female Balb/c mice) | Proliferative cellular response of mesenteric lymph nodes to KLH compared to control (FIG. 15) (mesenteric lymph nodes; mouse, in vivo) | Ranking Total (Female Balb/c mice; listed as TpaL) | Proliferative cellular response of mesenteric lymph nodes to KLH compared to control (FIG. 15) (mesenteric lymph nodes; 40 μg on SiO2 particles in 0.2 ml PBS per mouse per day intragastrically, days 1-3, KLH + cholera toxin days 7 and 14, killed day 21, control KLH+CT)
CCCCCCCCCCCCCCCCC(=O)OC[C@H](COP(=O)(O)OCCN)OC(=O)CCCCCCCCCCCCCCCC [PEH, L-α-Phosphatidylethanolamine, diheptadecanoyl] | 4 | 12 | 2 | 2 | 7 | 1 | 28 | – | – | –
CCCCCCCCCCCCCC(=O)OC[C@H](COP(=O)(O)OCCN)OC(=O)CCCCCCCCCCCCC [PEM, L-α-Phosphatidylethanolamine, dimyristoyl] | 17 | 7 | 1 | 2 | 6 | 2 | 35 | – | – | –
CCCCCCCCCCCCCCCCCC(=O)OC[C@H](COP(=O)(O)OCCN)OC(=O)CCCCCCCCCCCCCCCCC [PES, L-α-Phosphatidylethanolamine, distearoyl] | 15 | 6 | 1 | 2 | 7 | 1 | 32 | – | – | –
CCCCCCCCCCCCC/C=C/[C@@H](O)[C@H](CO)NC(=O)CCCCCCCCCCCCCCC [PS, N-Palmitoyl-d-sphigosine] | 35 | 3 | 2 | 4 | 19 | 1 | 64 | – | – | –
CCCCCCCC/C=C\CCCCCCCC(=O)OC[C@H](COP(=O)([O-])OCC[N+](C)(C)C)OC(=O)CCCCCCC/C=C\CCCCCCCC [Phosphatidycholine, dioleoyl, Phosphatidylcholine, dioleoyl] | – | – | – | – | – | – | – | strong proliferative response | – | –
CCCCCCCCCCCCCC(=O)OCC(COC(=O)CCCCCCCCCCCCC)OC(=O)CCCCCCCCCCCCC [TM, Trymyristin] | 6 | 4 | 1 | 1 | 3 | 1 | 17 and 16 | – | – | –
CCCCCCCCCCCCCCCC(=O)OCC(COC(=O)CCCCCCCCCCCCCCC)OC(=O)CCCCCCCCCCCCCCC [TPaL, Tripalmitin] | 3 | 4 | 1 | 1 | 6 | 1 | 16 | – | 15 | –
CCCCCCCCCCCCCCC(=O)OCC(COC(=O)CCCCCCCCCCCCCC)OC(=O)CCCCCCCCCCCCCC [TPeN, Tripentadecanoin] | 11 | 4 | 2 | 3 | 9 | 2 | 31 | – | – | –
CC/C=C\C/C=C\C/C=C\CCCCCCCC(=O)OCC(COC(=O)CCCCCCC/C=C\C/C=C\C/C=C\CC)OC(=O)CCCCCCC/C=C\C/C=C\C/C=C\CC [Trilinolenin] | – | – | – | – | – | – | – | – | – | strong proliferative response
